Data published in US9012659B2, “3-(indolyl)- or 3-(azaindolyl)-4-arylmaleimide compounds and their use in tumor treatment” (Johannes Gutenberg—Universitat Mainz, priority 2009, dated 2015).

Columns and labels:
[1] = system: HT-29 human colon adenocarcinoma cells; assay: Evaluation of antiproliferative effect (MTT assay); assay type: cell-based; settings: 72 h, treatment for 3 days, untreated HT-29 cells: 100%, read-out: Decrease of HT-29 colon cancer cell viability (%)
Description: Cell suspensions (200 μl) containing 10,000 viable cells were plated into each well and incubated over night before exposure with various concentrations of agents. Cells were then incubated with 100 μl of different concentrations of compounds for 3 days at 37° C. with 5% CO2. At the end of the time point (3 days), 10 μl/well of MTT stock solution (5 mg/ml) (Biomol, Germany) were added. […] Each experiment was done in triplicate. […]
The antitumor efficacy of the compounds of the invention was examined against HT-29 human colon adenocarcinoma cells. […] The compound of example 1 of WO 2006/061212 was used as comparative compound.

human HT-29 cancer cells = assay: Nicoletti apoptosis assay by cell cycle analysis (sub-G1 fraction); assay type: cell-based; settings: combination: compound plus Irinotecan 1.18 μM, agent-free control 3.4 ± 0.9%
Description: Cancer cells were transferred to 12-well flat-bottomed plates. Cell suspensions (1 ml) containing 1.5×10^5 viable cells were plated into each well and incubated over night before exposure with various concentrations of agents. Cells were then incubated in 1 ml medium with various concentrations of single applied moguntinones, irinotecan alone, or with the combinations of moguntinones with irinotecan or topotecan at 37° C. with 5% CO2.
After incubation cells were washed with PBS, trypsinizated, palleted and mixed with propidium-iodide-buffer (containing 0.1% sodium citrate, 0.1% triton X-100, […] propidium-iodide) and incubated for 1 hour at 4° C. Cell cycle sub-G1-fraction analysis was performed as described previously^23 using a FACS cytometer (BD FACS Calibur™, BD Biosciences, Heidelberg, Germany). Each experiment was done in triplicate.
All cells were maintained at 37° C. in an incubator under an atmosphere containing 5% CO2. After incubation the cells were washed with PBS, trypsinized, pelleted and mixed with PI buffer (containing 0.1% sodium citrate, 0.1% triton X-100, […] propidium iodide (PI)) and incubated for 1 hour at 4° C. Cell cycle sub-G1 fraction analysis was performed as described previously (Nicoletti, I. et al. (1991) J. Immunol. Methods 139, 271-279) using a flow cytometer (BD FACS Calibur™, BD Biosciences, Heidelberg, Germany). […]

Structure (SMILES) | melting point [°C] | viability at 2.6 µM [1] [%] | viability at 7.9 µM [1] [%] | viability at 26 µM [1] [%] | viability at 52 µM [1] [%] | Induction of apoptosis, combination compound plus irinotecan (human HT-29 cancer cells) [%]
COc1cc(C2=C(c3c[nH]c4ccc(F)cc34)C(=O)NC2=O)cc(OC)c1OC [Example 10, 3-(5-Fluoro-1H-indol-3-yl)-4-(3,4,5-trimethoxyphenyl)-maleinimide] | 232 to 233 | – | – | – | – | –
COc1cc(C2=C(c3cn(CCN4CCOCC4)c4ccccc34)C(=O)NC2=O)cc(OC)c1OC [Example 8, 3-{1-(2-Morpholinoethyl)-1H-indol-3-yl}-4-(3,4,5-trimethoxyphenyl)-maleinimide] | 238 to 239 | 81.1 ± 2.99 | 84.1 ± 2.18 | 53.39 ± 0.1 | 39.3 ± 1.31 | –
COc1cc(C2=C(c3cn(CCCN)c4ccccc34)C(=O)NC2=O)cc(OC)c1OC.Cl [Example 2, 3-(1-[3-Ammoniopropyl]-1H-indol-3-yl)-4-(3,4,5-trimethoxyphenyl)-maleinimide-chloride] | 274 to 275 | 45.8 ± 3.25 | 36.4 ± 1.77 | 17.65 ± 0.13 | 6.68 ± 0.29 | –
COc1cc(C2=C(c3cn(CCCN4CCN(C)CC4)c4ccccc34)C(=O)NC2=O)cc(OC)c1OC [Example 9, 3-{1-[3-(4-Methylhexahydro-1-pyrazindiylium)propyl]-1H-indol-3-yl}-4-(3,4,5-trimethoxyphenyl)-maleinimide dichloride] | 225 to 226 | 66.5 ± 3.1 | 49.9 ± 1.32 | 22.6 ± 1.16 | 15.3 ± 1.21 | –
COc1cc(C2=C(c3cn(CCN)c4ccccc34)C(=O)NC2=O)cc(OC)c1OC.Cl [Example 1, 3-(1-[2-Ammonioethyl]-1H-indol-3-yl)-4-(3,4,5-trimethoxyphenyl)-maleinimide-chloride] | 277.1 | 32.3 ± 1.07 | 29.3 ± 2.09 | 12.5 ± 0.39 | 8.95 ± 0.65 | 51.00 ± 0.56
COc1cc(C2=C(c3cn(CCCO)c4ccccc34)C(=O)NC2=O)cc(OC)c1OC [Example 4, 3-(1-[3-Hydroxypropyl]-1H-indol-3-yl)-4-(3,4,5-trimethoxyphenyl)-maleinimide] | 160 | 37.9 ± 1.3 | 34.7 ± 0.78 | 27.7 ± 1.23 | 25.4 ± 2.26 | –
COc1cc(C2=C(c3cn(CCN(C)C)c4ccccc34)C(=O)NC2=O)cc(OC)c1OC [Example 5, 3-{1-[2-(Dimethylamino)ethyl]-1H-indol-3-yl}-4-(3,4,5-trimethoxyphenyl)-maleinimide] | 184 to 185 | 68.5 ± 8.69 | 52.6 ± 0.53 | 32.2 ± 0.9 | 15 ± 0.9 | –
COc1cc(C2=C(c3cn(CCO)c4ccccc34)C(=O)NC2=O)cc(OC)c1OC [Example 3, 3-(1-[2-Hydroxyethyl]-1H-indol-3-yl)-4-(3,4,5-trimethoxyphenyl)-maleinimide] | 195 to 196 | 68.8 ± 2.48 | 70.2 ± 3.72 | 45.7 ± 2.18 | 28.7 ± 0.55 | –
COc1cc(C2=C(c3cn(CCN4CCCCC4)c4ccccc34)C(=O)NC2=O)cc(OC)c1OC [Example 7, 3-{1-[2-(Piperidin-1-yl)ethyl]-1H-indol-3-yl}-4-(3,4,5-trimethoxyphenyl)-maleinimide] | 179 to 180 | 86.5 ± 2.16 | 56.9 ± 3.02 | 20.1 ± 1.36 | 24.3 ± 0.98 | –
COc1cc(C2=C(c3c[nH]c4cccnc34)C(=O)NC2=O)cc(OC)c1OC [Example 12, 3-(4-Azaindol-3-yl)-4-(3,4,5-trimethoxyphenyl)-1H-pyrrol-2,5-dione] | 274 to 275 | – | – | – | – | –
COc1cc(C2=C(c3c[nH]c4ccc(Br)cc34)C(=O)NC2=O)cc(OC)c1OC [Example 11, 3-(5-Bromo-1H-indol-3-yl)-4-(3,4,5-trimethoxyphenyl)-maleinimide] | 259 to 262 | – | – | – | – | –
COc1cc(C2=C(c3cn(CCCN(C)C)c4ccccc34)C(=O)NC2=O)cc(OC)c1OC [Example 6, 3-{1-[3-(Dimethylamino)propyl]-1H-indol-3-yl}-4-(3,4,5-trimethoxyphenyl)maleinimide] | 187 to 188 | 39.3 ± 2.6 | 38.5 ± 2.43 | 15.8 ± 1.35 | 19.4 ± 1.32 | –
